This passage reports GI50 and TGI results from PubChem BioAssay (NCI).

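Five compound concentrations were applied to cells in 96-well plates for 48 hours; endpoints were derived by simple linear interpolation of the resulting dose-response curve. At the GI50, growth is halved. At the TGI there is no net growth.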 Some results are limits rather than exact numbers.

Test systems include IGROV1 ovarian; MOLT-4 leukemia; RPMI-8226 leukemia; M14 melanoma; A498 renal; UACC-62 melanoma; SK-OV-3 ovarian; MCF7 breast; TK-10 renal; SNB-19 CNS.
What all share (experiment): NCI anticancer screen, dose series, 48 h

On to `CCCCCCCCCCN(CCCCCCCCCC)CC(=O)c1ccc2cc(Br)c3ccccc3c2c1`, for which the GI50 is 1.84 µM in the assay on IGROV1 ovarian; 2.66 µM with MOLT-4 leukemia; 2.27 µM with RPMI-8226 leukemia; 1.91 µM in the assay with M14 melanoma; 10.2 µM with A498 renal; 1.61 µM in the assay with UACC-62 melanoma. Besides, the GI50 with SK-OV-3 ovarian was 4.94 µM; in the assay with MCF7 breast, 1.8 µM; in the assay with TK-10 renal, 1.76 µM; in the assay on SNB-19 CNS it was 2.04 µM. Also, the TGI in the assay on IGROV1 ovarian is 3.6 µM; in the assay with MOLT-4 leukemia, 6.2 µM; with RPMI-8226 leukemia it was 4.88 µM; in the assay on M14 melanoma, 3.53 µM; in the assay on A498 renal, 22.4 µM; in the assay with UACC-62 melanoma, 3.35 µM. For the same molecule, the TGI stood at 17.6 µM with SK-OV-3 ovarian, 3.25 µM in the assay with MCF7 breast, 3.26 µM in the assay with TK-10 renal and 5.75 µM in the assay with SNB-19 CNS.

In the case of `N#Cc1c(-c2ccccc2)cc(-c2ccc(Nc3nc(Nc4ccc(Cl)cc4)nc(Nc4ccc(Cl)cc4)n3)cc2)nc1N`, the GI50 with IGROV1 ovarian is 1.34 µM; in the assay with MOLT-4 leukemia, 1.62 µM; in the assay with RPMI-8226 leukemia, 3.81 µM; in the assay on M14 melanoma it was 1.79 µM; in the assay on A498 renal it was 1.28 µM; with UACC-62 melanoma, 5.56 µM. Besides, the GI50 was 21.3 µM with SK-OV-3 ovarian, 1.56 µM in the assay with MCF7 breast, 1.89 µM with TK-10 renal and 29.7 µM in the assay with SNB-19 CNS. Moreover, the TGI in the assay on IGROV1 ovarian is 2.67 µM; in the assay with MOLT-4 leukemia, 4.53 µM; with RPMI-8226 leukemia it was more than 100 µM; in the assay on M14 melanoma it was 3.67 µM; with A498 renal it was 8.72 µM; in the assay on UACC-62 melanoma it was 45.4 µM. The TGI is 55 µM with SK-OV-3 ovarian, 4.16 µM in the assay on MCF7 breast, 4.4 µM in the assay on TK-10 renal and more than 100 µM in the assay with SNB-19 CNS.

Take `C#CC1(O)C(COP(=O)(O)OC2CC(n3cc(F)c(=O)[nH]c3=O)OC2CO)OC(n2ccc(N)nc2=O)C1O` (stereo not drawn): the GI50 in the assay with IGROV1 ovarian is less than 0.0139 µM; in the assay on MOLT-4 leukemia it was less than 0.01 µM; in the assay with RPMI-8226 leukemia, less than 0.01 µM; in the assay on M14 melanoma, less than 0.0211 µM; with A498 renal, 0.0824 µM; in the assay on UACC-62 melanoma it was 0.019 µM. In addition, the GI50 in the assay with SK-OV-3 ovarian is 0.0735 µM; in the assay on MCF7 breast it was less than 0.01 µM; with TK-10 renal it was 0.0273 µM; with SNB-19 CNS it was less than 0.0205 µM. For the same molecule, the TGI was more than 35.9 µM with IGROV1 ovarian; more than 39 µM with MOLT-4 leukemia; 0.774 µM in the assay on M14 melanoma; 1.87 µM in the assay on A498 renal; 1.82 µM in the assay on UACC-62 melanoma; more than 100 µM in the assay on SK-OV-3 ovarian. In addition, the TGI with MCF7 breast is 0.137 µM; in the assay on TK-10 renal, more than 42.8 µM; with SNB-19 CNS, more than 100 µM.

Regarding `OCCSCc1ccccc1`, the TGI with IGROV1 ovarian, in the assay on MOLT-4 leukemia, in the assay on RPMI-8226 leukemia, in the assay on M14 melanoma, in the assay on A498 renal and in the assay on UACC-62 melanoma was more than 100 µM each time. The TGI with SK-OV-3 ovarian, in the assay with MCF7 breast, in the assay on TK-10 renal and in the assay with SNB-19 CNS was more than 100 µM each time.

Take `CN(C)N1C(=O)c2ccccc2NC1c1ccccc1` (stereo not drawn): the TGI with IGROV1 ovarian, in the assay on MOLT-4 leukemia, with RPMI-8226 leukemia, in the assay on M14 melanoma, in the assay with A498 renal and in the assay on UACC-62 melanoma was more than 100 µM throughout. The TGI with SK-OV-3 ovarian, with MCF7 breast, in the assay with TK-10 renal and with SNB-19 CNS was more than 100 µM each time.

`CC(C)c1ccc(C(=O)Nc2sc3c(c2C#N)CCC(=O)C3)cc1`: the GI50 with IGROV1 ovarian is 0.458 µM; in the assay with MOLT-4 leukemia it was 0.412 µM; in the assay on RPMI-8226 leukemia it was 0.152 µM; with M14 melanoma it was 0.592 µM; in the assay with A498 renal it was 1.92 µM; in the assay with UACC-62 melanoma, 0.318 µM. Also, the GI50 in the assay with SK-OV-3 ovarian was 2.39 µM; in the assay with MCF7 breast it was 0.337 µM; in the assay on TK-10 renal, 0.613 µM; with SNB-19 CNS, 0.409 µM. In addition, the TGI in the assay with IGROV1 ovarian is 13.1 µM; with MOLT-4 leukemia, more than 100 µM; in the assay with M14 melanoma, 26.4 µM; in the assay on A498 renal it was 6.29 µM; in the assay with UACC-62 melanoma, 1.6 µM; in the assay on SK-OV-3 ovarian, 8.15 µM. Further, the TGI in the assay on MCF7 breast was more than 45 µM; in the assay with TK-10 renal, 5.47 µM; in the assay on SNB-19 CNS it was more than 100 µM.

As for `CCN1C(=S)N(CC)C2C1NC(=S)N2/N=C/C=C/c1ccccc1` (stereo not drawn), the GI50 was 2.15 µM in the assay on IGROV1 ovarian; 1.02 µM with MOLT-4 leukemia; 1.97 µM in the assay with RPMI-8226 leukemia; 0.879 µM in the assay on M14 melanoma; 0.641 µM in the assay on A498 renal; 1.37 µM in the assay with UACC-62 melanoma. Besides, the GI50 was 2.4 µM in the assay on SK-OV-3 ovarian, 0.513 µM with MCF7 breast, 7.65 µM in the assay on TK-10 renal and 2.8 µM in the assay with SNB-19 CNS. The TGI was 16.3 µM in the assay on IGROV1 ovarian; 25.4 µM in the assay with MOLT-4 leukemia; 6.64 µM in the assay on RPMI-8226 leukemia; 12.9 µM in the assay with M14 melanoma; 4.67 µM in the assay with A498 renal; 14.9 µM in the assay with UACC-62 melanoma. Also, the TGI was 14.7 µM in the assay with SK-OV-3 ovarian, 16.4 µM with MCF7 breast, 23.1 µM with TK-10 renal and 20.2 µM with SNB-19 CNS.

As for `CC/C=C\C[C@H](O)C/C=C1/C(=O)C=C[C@@H]1C/C=C\CCCC(=O)N(C)C`, the GI50 with IGROV1 ovarian is 3.3 µM; in the assay with MOLT-4 leukemia, 2.78 µM; in the assay on RPMI-8226 leukemia, 0.671 µM; with M14 melanoma it was 2.79 µM; in the assay on A498 renal, 2.56 µM; in the assay with UACC-62 melanoma, 2.2 µM. The GI50 was 4.36 µM in the assay on SK-OV-3 ovarian, 0.368 µM in the assay on MCF7 breast, 2.61 µM in the assay with TK-10 renal and 3.19 µM in the assay with SNB-19 CNS. In addition, the TGI worked out at 11.2 µM in the assay on IGROV1 ovarian; 12.8 µM with MOLT-4 leukemia; 6.01 µM with RPMI-8226 leukemia; 11 µM in the assay with M14 melanoma; 4.46 µM with A498 renal; 5.12 µM in the assay with UACC-62 melanoma. For the same molecule, the TGI stood at 15.6 µM in the assay on SK-OV-3 ovarian, 12.2 µM in the assay with MCF7 breast, 7.48 µM in the assay on TK-10 renal and 14.1 µM with SNB-19 CNS.
